Data reported in article PMC12566703, “Design, Synthesis, In Vitro and In Silico Biological Evaluation of New Pyridine-2,5-Dicarboxylates Esters Bearing Natural Source Fragments as Anti-Trypanosomatid Agents” (Pharmaceutics, 2025).
Like-named read-outs stand apart in the source and are kept apart here.

Experiments:
[1] = system: T. cruzi (A1) epimastigotes; test: In vitro trypanocidal activity, Alamar Blue assay, 48 h; type: cell-based, Trypanosoma cruzi; settings: for Selectivity Index T. cruzi A1: CC50 (J774.2)/IC50; for IC50: 48 h, read-out: T. cruzi IC50 (µM ± SD) A1
Method: (§1) Both strains were maintained in liver infusion tryptose (LIT) medium supplemented with 10% FBS and 0.1% penicillin-streptomycin. They were preserved by transferring 1 × 10^6 parasites/mL into a new culture medium every week. […] The metabolic activity was determined by the Alamar Blue assay. Briefly, after the incubation period, 20 µL of 2.5 mM resazurin solution was added to each well and incubated for 3 h. Three independent experiments were performed in triplicate. The half-maximum inhibitory concentration (IC50) was determined using probit analysis.

[2] = system: T. cruzi (NINOA) epimastigotes; test: as above; type: cell-based, Trypanosoma cruzi; settings: for Selectivity Index T. cruzi NINOA: CC50 (J774.2)/IC50; for IC50: 48 h, read-out: T. cruzi IC50 (µM ± SD) NINOA; for IC50 / Trypanocidal activity class in words, NINOA strain: epimastigotes, NINOA strain; for Trypanocidal activity class in words, NINOA strain: classes by IC50
Method: as §1

[3] = system: L. mexicana (MHOM/MX/2017/UABJO17FCQEPS) (FCQEPS) promastigotes; test: In vitro leishmanicidal activity, MTT method, 48 h; type: cell-based, Leishmania mexicana; settings: for Selectivity Index L. mexicana FCQEPS: CC50 (J774.2)/IC50; for IC50: 48 h, read-out: L. mexicana IC50 (µM ± SD) FCQEPS; for IC50 / Leishmanicidal activity class in words, FCQEPS strain: promastigotes, FCQEPS strain; for Leishmanicidal activity class in words, FCQEPS strain: classes by IC50
Method: (§2) To determine the leishmanicidal activity of pyridine-2,5-dicarboxylates, the parasites, in their logarithmic growth phase (5 × 10^5 parasites/mL), were cultured in 96-well microliter plates with the corresponding pyridine-2,5-dicarboxylate compound at different concentrations (0.78–100 µM). Compounds were dissolved in DMSO in a final volume of 200 µL for 48 h at 26 °C. Parasites treated with DMSO (0.2%) were used as a negative control, while treatments with Glucantime and Amphotericin B, at the same concentrations, were used as positive controls. The metabolic activity of the cells was determined using the 3-(4,5-Dimethylthiazol-2-yl)-2,5-diphenyltetrazolium bromide (MTT) method. IC50 was determined using probit analysis. Three independent experiments were performed in triplicate, and the data were analyzed for statistical significance (p < 0.05) using Biostat 5.3.0 software.

[4] = system: L. mexicana (MNYC/BZ/62/M379) (M379) promastigotes; test: In vitro leishmanicidal activity, MTT method, 48 h; type: cell-based, Leishmania mexicana; settings: for Selectivity Index L. mexicana M379: CC50 (J774.2)/IC50; for IC50: 48 h, read-out: L. mexicana IC50 (µM ± SD) M379; for IC50 / Leishmanicidal activity class in words, M379 strain: promastigotes, M379 strain; for Leishmanicidal activity class in words, M379 strain: classes by IC50
Method: as §2

[5] = Cytotoxicity assay, MTT method, 48 h; type: cell-based, murine; settings: mouse, J774.2 macrophage cells, J774.2 cell line, read-out: Macrophage J774.2 CC50 (µM ± SD)
Method: A cytotoxicity assay was performed using the murine macrophage J774.2 cell line, which was recloned from the original ascites and solid tumor J774.1 (according to the manufacturer). The cells were cultured in RPMI medium supplemented with 10% SBF, 100 U […] penicillin, 100 µg/mL streptomycin, and glutamine (2 mM), and 5% CO2 atmosphere. The medium was changed every 2–3 days. Macrophages were used at 1 × 10^6 cells and were incubated with compounds at different concentrations (0.75–100 µM, respectively) at 37 °C for 48 h in a 5% CO2 atmosphere. DMSO was used as a negative control (0.2%). The metabolic activity of macrophages was determined by the MTT method. The percentage of cell viability was calculated, and the half-maximal cytotoxic concentration (CC50) was determined using probit analysis. Three independent assays were conducted in triplicate.

[6] = Trypanosoma cruzi, epimastigotes, A1 strain

Compound | Selectivity Index T. cruzi A1 [1] | IC50 [1, 6] [µM] | Selectivity Index T. cruzi NINOA [2] | IC50 ([2]; Trypanosoma cruzi) [µM] | Selectivity Index L. mexicana FCQEPS [3] | IC50 ([3]; Leishmania mexicana) [µM] | Selectivity Index L. mexicana M379 [4] | IC50 ([4]; Leishmania mexicana) [µM] | Leishmanicidal activity class in words, M379 strain [4] | CC50 at 48 h [5] [µM] | Leishmanicidal activity class in words, FCQEPS strain [3] | Trypanocidal activity class in words, A1 strain ([1]; epimastigotes, A1 strain, classes by IC50) | Trypanocidal activity class in words, NINOA strain [2] | IC50 [2] [µM] | IC50 ([1]; epimastigotes, A1 strain) [µM] | IC50 [3] [µM] | IC50 [4] [µM]
CCOC(=O)c1nc(C)c(C(=O)OCc2ccc3c(c2)OCO3)cc1-c1ccc(C)cc1 [Compound 6b] | >4.0 | 50.2 ± 2.31 | >3.7 | 54 ± 2.29 | >1 | > 200 | >1 | > 200 | did not have antiparasitic activity | > 200 | – | – | – | – | – | – | –
CCOC(=O)c1nc(C)c(C(=O)OCc2ccc3c(c2)OCO3)cc1-c1ccc(F)cc1 [Compound 6c] | >7.9 | 25.4 ± 0.6 | >1 | > 200 | >1 | > 200 | >1 | > 200 | inactive | > 200 | – | – | – | – | – | – | –
CCOC(=O)c1nc(C)c(C(=O)OC/C=C/c2ccccc2)cc1-c1ccccc1 [Compound 7a] | >1 | > 200 | >7.20 | 27.8 ± 1.66 | >1 | > 200 | >1 | > 200 | did not have antiparasitic activity | > 200 | did not have leishmanicidal activity | – | – | – | – | – | –
CCOC(=O)c1nc(C)c(C(=O)OCC=Cc2ccccc2)cc1-c1ccc(C)cc1 [Compound 7b] | >1 | > 200 | >2.0 | – | >1.7 | 116.71 ± 0.03 | >1 | > 200 | did not have antiparasitic activity | > 200 | – | completely lose their trypanocidal activity | – | – | – | – | –
CCOC(=O)c1nc(C)c(C(=O)OCC=Cc2ccccc2)cc1-c1ccc(F)cc1 [Compound 7c] | >8.8 | 22.8 ± 0.69 | >3.1 | 63.1 ± 1.64 | >1 | > 200 | >1 | > 200 | inactive | > 200 | – | – | – | – | – | – | –
CCOC(=O)c1nc(C)c(C(=O)O[C@@H]2C[C@@H](C)CC[C@@H]2C(C)C)cc1-c1ccccc1 [Compound 8a] | >1 | > 200 | >1 | – | >2.4 | 82.7 | >2.5 | 79.1 | – | > 200 | – | – | inactive | – | – | – | –
CCOC(=O)c1nc(C)c(C(=O)O[C@@H]2C[C@@H](C)CC[C@@H]2C(C)C)cc1-c1ccc(C)cc1 [Compound 8b] | >3.9 | – | >1.8 | 106.9 ± 0.5 | >1 | – | >1 | – | – | > 200 | – | – | slight activity | > 200 | – | – | –
CCOC(=O)c1nc(C)c(C(=O)O[C@@H]2C[C@@H](C)CC[C@H]2C(C)C)cc1-c1ccc(F)cc1 [Compound 8c, 2-Ethyl 5-((1R,2S,5S)-2-isopropyl-5-methylcyclohexyl) 3-(4-fluorophenyl)-6-methylpyridine-2,5-dicarboxylate] | >9.2 | – | >4.3 | ≤ 56.7 | >2.2 | 90.9 ± 5 | >1 | > 200 | – | > 200 | – | – | – | 46 ± 3.33 | – | – | –
CCOC(=O)c1nc(C)c(C(=O)OC2C[C@@H]3CC[C@@]2(C)C3(C)C)cc1-c1ccccc1 (stereo partly shown) [Compound 9a] | >8.0 | < 29 | >3.6 | 55.8 ± 2.5 | >1 | > 200 | >1 | > 200 | did not have antiparasitic activity | > 200 | did not have leishmanicidal activity | – | moderately active (moderately active (IC50 41 to 100 µM)) | – | 25 ± 2.98 | – | –
CCOC(=O)c1nc(C)c(C(=O)O[C@@H]2C[C@H]3CC[C@@]2(C)C3(C)C)cc1-c1ccc(C)cc1 [Compound 9b, 2-Ethyl 5-((1S,2R,4R)-1,7,7-trimethylbicyclo[2.2.1]heptan-2-yl) 6-methyl-3-(p-tolyl)pyridine-2,5-dicarboxylate] | >5.2 | < 40 | – | < 40 | >2.5 | – | >5.0 | – | – | > 200 | – | – | – | 22.3 ± 1.6 | 38.5 | – | –
CCOC(=O)c1nc(C)c(C(=O)OC2C[C@@H]3CC[C@@]2(C)C3(C)C)cc1-c1ccc(F)cc1 (stereo partly shown) [Compound 9c] | >1 | > 200 | >7.6 | 26.2 | >1 | > 200 | >1 | > 200 | inactive | > 200 | – | – | – | 26.2 ± 1.55 | – | – | –
CCOC(=O)c1nc(C)c(C(=O)OCC23CC4CC(CC(C4)C2)C3)cc1-c1ccccc1 [Compound 10a] | >4.3 | 46.9 | >1.9 | 105 | >1.2 | ≤ 162 | >2.4 | ≤ 162 | – | > 200 | – | – | – | 105 ± 1.34 | – | 161.53 ± 0.03 | 82.19 ± 0.01
